Assay results reported in patent publication US20240270821A1, “GIP/GLP1/GCG TRI-RECEPTOR AGONISTS AND USES THEREOF” (priority 2023, published 2024).
Where two headings read alike, the source gives them in different places. Starred links: 1 amine or outer side, 2 acyl side, 3 side chain; linkers in the order of their positions; H or OH if unused. Non-standard residues stand in square brackets, D forms with d. Residues, ends and D or L forms follow the SMILES beside them. Groups on a side chain read outwards from the residue. No end group written: not given here. *: point of attachment. C20 diacid = O=C(O)CCCCCCCCCCCCCCCCCCC(=O)*; C18 diacid = O=C(O)CCCCCCCCCCCCCCCCC(=O)*; αMePhe(2-F) = C[C@](N)(Cc1ccccc1F)C(=O)O; γGlu = O=C(O)[C@H](CCC(=O)[*:2])N[*:1]; αMe4Pal = C[C@](N)(Cc1ccncc1)C(=O)O; αMeY = C[C@](N)(Cc1ccc(O)cc1)C(=O)O; 4Pal = N[C@@H](Cc1ccncc1)C(=O)O; αMeL = CC(C)C[C@](C)(N)C(=O)O; αMeS = C[C@](N)(CO)C(=O)O; Orn = NCCC[C@H](N)C(=O)O; AEEA = NCCOCCOCC(=O)O; Aib = CC(C)(N)C(=O)O

Assays:
Format in all cases: cell-based
hGLP-1R [1] = biological target: T1, hGLP-1R (Homo sapiens, UniProt P43220); test: Functional cAMP activation in the presence of 0.1% casein (no HSA); conditions: read-out: Relative cAMP EC50, hGLP-1R;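 further: intracellular cAMP rise after 30 min at 37 °C read by HTRF, normalized between buffer only (0%) and maximal control ligand (100%), four-parameter variable-slope fit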
T1 sequence (P43220 24-463): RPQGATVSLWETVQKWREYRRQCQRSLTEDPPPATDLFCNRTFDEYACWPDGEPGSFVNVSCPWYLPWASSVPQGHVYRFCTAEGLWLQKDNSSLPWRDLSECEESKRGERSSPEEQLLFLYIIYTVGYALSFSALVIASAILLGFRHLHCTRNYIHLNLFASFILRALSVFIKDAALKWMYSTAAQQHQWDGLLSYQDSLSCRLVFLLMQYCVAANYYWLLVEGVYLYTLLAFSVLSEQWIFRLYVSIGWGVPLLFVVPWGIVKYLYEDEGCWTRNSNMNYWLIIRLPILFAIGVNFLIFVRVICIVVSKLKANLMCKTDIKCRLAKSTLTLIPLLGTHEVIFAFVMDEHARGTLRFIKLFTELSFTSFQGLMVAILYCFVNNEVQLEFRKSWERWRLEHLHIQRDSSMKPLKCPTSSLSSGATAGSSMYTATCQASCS

hGIPR [2] = biological target: T2, hGIPR (Homo sapiens, UniProt P48546); test: as above; conditions: read-out: Relative cAMP EC50, hGIPR;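 further: intracellular cAMP rise after 30 min at 37 °C read by HTRF against a standard curve, scaled between buffer alone (0%) and top control ligand concentration (100%), four-parameter fit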
T2 sequence (P48546 22-466): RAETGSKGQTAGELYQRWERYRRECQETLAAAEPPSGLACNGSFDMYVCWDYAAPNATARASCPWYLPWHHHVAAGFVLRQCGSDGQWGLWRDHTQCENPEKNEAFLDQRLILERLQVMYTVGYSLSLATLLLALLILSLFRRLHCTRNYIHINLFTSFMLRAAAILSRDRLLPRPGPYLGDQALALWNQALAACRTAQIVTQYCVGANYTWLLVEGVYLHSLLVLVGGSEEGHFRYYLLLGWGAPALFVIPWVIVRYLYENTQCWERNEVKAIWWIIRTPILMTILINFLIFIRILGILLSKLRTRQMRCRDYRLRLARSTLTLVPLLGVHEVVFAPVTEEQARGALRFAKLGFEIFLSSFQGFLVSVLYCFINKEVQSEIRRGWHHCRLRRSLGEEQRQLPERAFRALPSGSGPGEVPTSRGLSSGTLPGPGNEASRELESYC

human GcgR = human GcgR (Homo sapiens, UniProt P47871); test: Functional cAMP activity in the presence of 1% HSA; conditions: read-out: cAMP Rel EC50, hGcgR
Chain of human GcgR (P47871 26-477): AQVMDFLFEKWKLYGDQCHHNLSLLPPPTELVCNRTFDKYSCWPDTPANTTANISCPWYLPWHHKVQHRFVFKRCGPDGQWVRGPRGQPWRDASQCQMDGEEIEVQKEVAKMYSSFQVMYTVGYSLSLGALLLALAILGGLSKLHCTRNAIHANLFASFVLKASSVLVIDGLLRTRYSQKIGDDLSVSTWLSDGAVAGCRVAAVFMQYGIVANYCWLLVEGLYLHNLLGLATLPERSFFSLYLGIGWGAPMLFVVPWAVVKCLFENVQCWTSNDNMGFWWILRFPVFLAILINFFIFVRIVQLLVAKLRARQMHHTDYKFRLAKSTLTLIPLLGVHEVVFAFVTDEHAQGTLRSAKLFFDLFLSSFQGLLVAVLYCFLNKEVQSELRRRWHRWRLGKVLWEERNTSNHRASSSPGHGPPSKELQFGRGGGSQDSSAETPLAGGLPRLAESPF

hGLP-1R [3] = biological target: T1, hGLP-1R; test: Functional cAMP activity in the presence of 1% HSA; conditions: read-out: cAMP Rel EC50, hGLP-1R
hGcgR = hGcgR (Homo sapiens, UniProt P47871); test: Functional cAMP activation in the presence of 0.1% casein (no HSA); conditions: read-out: Relative cAMP EC50, hGcgR;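 further: intracellular cAMP rise after 30 min at 37 °C, read by HTRF against a cAMP standard curve, scaled from buffer only (0%) to maximal control ligand response (100%)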
Chain of hGcgR (P47871 26-477): as above

hGIPR [4] = biological target: T2, hGIPR; test: Functional cAMP activity in the presence of 1% HSA; conditions: read-out: cAMP Rel EC50, hGIPR
[5] = in the presence of 0.1% casein (no HSA), geometric mean

Compound	EC50 (hGLP-1R [1]; [5]) [nM]	EC50 (hGIPR [2]; [5]) [nM]	EC50 (human GcgR) [nM]	EC50 (hGLP-1R [3]) [nM]	EC50 (hGcgR; [5]) [nM]	EC50 (hGIPR [4]) [nM]	EC50 (hGLP-1R [1]) [nM]	EC50 (hGIPR [2]) [nM]	EC50 (hGcgR) [nM]
Y[Aib]QGT[αMePhe(2-F)]TSDYSKILDKIAQK([AEEA-γGlu-C20 diacid])AFIQYLIEGGPSSGEPPPSEG-NH2 [Example 354]	1.21	0.134	1440	175	7.91	23.8	–	–	–
Y[Aib]QGT[αMePhe(2-F)]TSDYSILLDKQAAK([AEEA-γGlu-C20 diacid])EFIEYLIEGGPSSGAPPPSEG-NH2 [Example 340]	0.648	0.189	647	246	2.02	60.4	–	–	–
H-Y[Aib]QGTFTSDYSI[αMeL]LDKQAAK([AEEA-AEEA-γGlu-C20 diacid])QFVEWLIA[Aib]GPSSGEPPPGSG-NH2 [Example 335]	0.461	0.292	1410	150	6.11	46.7	–	–	–
Y[Aib]QGT[αMePhe(2-F)]TSDYSILLDAQAAK([AEEA-γGlu-C20 diacid])EFIEYLIEGGPSSGEPPPSEG-NH2 [Example 351]	0.679	0.243	2470	272	12.1	57.5	–	–	–
CC[C@H](C)[C@H](NC(=O)[C@H](Cc1ccccc1)NC(=O)[C@H](C)NC(=O)C(C)(C)NC(=O)[C@H](CCC(N)=O)NC(=O)[C@H](C)NC(=O)[C@H](CCCCNC(=O)CC[C@H](NC(=O)CC[C@H](NC(=O)CCCCCCCCCCCCCCCCC(=O)O)C(=O)O)C(=O)O)NC(=O)[C@H](CCCCN)NC(=O)[C@H](CC(=O)O)NC(=O)[C@H](CC(C)C)NC(=O)[C@](C)(CC(C)C)NC(=O)[C@@H](NC(=O)[C@H](CO)NC(=O)[C@H](Cc1ccncc1)NC(=O)[C@H](CC(=O)O)NC(=O)[C@H](CO)NC(=O)[C@@H](NC(=O)[C@](C)(Cc1ccccc1F)NC(=O)[C@@H](NC(=O)CNC(=O)[C@H](CCC(N)=O)NC(=O)C(C)(C)NC(=O)[C@@H](N)Cc1ccc(O)cc1)[C@@H](C)O)[C@@H](C)O)[C@@H](C)CC)C(=O)N[C@@H](CCC(=O)O)C(=O)N[C@@H](Cc1ccc(O)cc1)C(=O)N[C@@H](CC(C)C)C(=O)N[C@@H](CO)C(=O)N[C@@H](CCC(=O)O)C(=O)NCC(=O)NCC(=O)N1CCC[C@H]1C(=O)N[C@@H](CO)C(=O)N[C@@H](CO)C(=O)NCC(=O)N[C@@H](C)C(=O)N1CCC[C@H]1C(=O)N1CCC[C@H]1C(=O)N1CCC[C@H]1C(=O)N[C@@H](CO)C(N)=O [Example 446] (H-Y[Aib]QGT[αMePhe(2-F)]TSD[4Pal]SI[αMeL]LDKK([γGlu-γGlu-C18 diacid])AQ[Aib]AFIEYLSEGGPSSGAPPPS-NH2)	–	–	516	24.5	–	3.01	0.696	0.0351	8.34
H-Y[Aib]QGTFTSD[4Pal]SR[αMeL]LDKK([AEEA-AEEA-γGlu-C18 diacid])AQ[αMe4Pal]AFIEYLIE[Aib]GPSSGAPPPSGS-NH2 [Example 815]	2.79	0.181	798	342	4.13	17.9	–	–	–
H-Y[Aib]QGTFTSDFS[Orn][αMeL]LDKK([AEEA-γGlu-C20 diacid])AQ[Aib]AFIEWLLAGGPSSGEPPPSGE-NH2 [Example 103]	3.27	0.2	2590	482	10.5	35.1	–	–	–
H-Y[Aib]QGTFTSD[4Pal]SQ[αMeL]LDKK([AEEA-γGlu-C18 diacid])AQ[αMe4Pal]AFIEYLIEGGPSSGAPPPSGS-NH2 [Example 826]	2.75	0.581	441	202	5.59	81.6	–	–	–

Other lines, results leading:

EC50 (hGLP-1R [1]; [5]) [nM]	EC50 (hGIPR [2]; [5]) [nM]	EC50 (human GcgR) [nM]	EC50 (hGLP-1R [3]) [nM]	EC50 (hGcgR; [5]) [nM]	EC50 (hGIPR [4]) [nM]	EC50 (hGLP-1R [1]) [nM]	EC50 (hGIPR [2]) [nM]	EC50 (hGcgR) [nM]	Compound
–	–	937	81.8	–	10	0.931	0.103	6.47	H-Y[Aib]QGT[αMePhe(2-F)]TSD[4Pal][αMeS]ILLD[Orn]K([γGlu-γGlu-C18 diacid])AQ[Aib][Orn]FI[dE]YLIEGGPSSGEPPPEGTEEE-NH2 [Example 577]
–	–	311	11.4	–	1.11	0.173	0.0101	2.72	H-Y[Aib]QGT[αMePhe(2-F)]TSD[4Pal][αMeS]I[αMeL]LD[Orn]K([γGlu-γGlu-C18 diacid])AQ[Aib]NFI[dE][αMeY]LIEGGPSSGEPEPSEG-NH2 [Example 473]
0.292	0.00597	248	45.4	1.59	0.584	–	–	–	H-Y[Aib]QGT[αMePhe(2-F)]TSD[4Pal][αMeS]I[αMeL]LD[Orn]K([AEEA-γGlu-C18 diacid])AQ[αMe4Pal]EFI[dE][αMeY]LIEGGPPS[Aib][Orn]PPP[Orn]GS-NH2 [Example 1189]
–	–	300	32	–	1.88	0.41	0.0319	4.56	H-Y[Aib]QGT[αMePhe(2-F)]TSD[4Pal][αMeS]I[αMeL]LD[Orn]K([γGlu-γGlu-C18 diacid])AQ[Aib][Orn]FI[dE][αMeY]LTEGGPSSGEPPPSGTGE-NH2 [Example 543]
